From paper PMC8158844 (ACS Omega, 2021)
Marks after values point to notes of the source that are not given here.

Legend:
[1] = Chemical stability in aqueous solution; type: physicochemical; details: for stability in PBS buffer (percent of parent remaining): PBS buffer pH 7.4 with 0.2% Triton X-100, 60 min, 37 °C
[2] = Metabolic stability in porcine liver S9 fraction; type: in vitro ADME; details: 30 min; for stability porcine liver S9 fractions (percent of parent remaining): 37 °C, no NADPH added; for stability in the absence of BNNP (percent of parent remaining) / stability in the presence of BNNP (percent of parent remaining): porcine liver homogenate; for stability in the presence of BNNP (percent of parent remaining): carboxylesterase 1 inhibitor BNPP 1 mM
[3] = Metabolic stability in porcine blood plasma; type: in vitro ADME; details: for metabolic stability porcine plasma (percent of parent remaining): Table 1, 30 min incubation, n = 3; for stability porcine blood plasma (percent of parent remaining): Table 3, 30 min, 37 °C, n = 3 unless otherwise stated
[4] = target: porcine albumin (Sus scrofa, UniProt P08835); assay: Stability in porcine albumin solution; type: in vitro ADME; details: porcine albumin 17.5 mg/mL in PBS; 30 min, 37 °C
porcine albumin, sequence (P08835 25-607): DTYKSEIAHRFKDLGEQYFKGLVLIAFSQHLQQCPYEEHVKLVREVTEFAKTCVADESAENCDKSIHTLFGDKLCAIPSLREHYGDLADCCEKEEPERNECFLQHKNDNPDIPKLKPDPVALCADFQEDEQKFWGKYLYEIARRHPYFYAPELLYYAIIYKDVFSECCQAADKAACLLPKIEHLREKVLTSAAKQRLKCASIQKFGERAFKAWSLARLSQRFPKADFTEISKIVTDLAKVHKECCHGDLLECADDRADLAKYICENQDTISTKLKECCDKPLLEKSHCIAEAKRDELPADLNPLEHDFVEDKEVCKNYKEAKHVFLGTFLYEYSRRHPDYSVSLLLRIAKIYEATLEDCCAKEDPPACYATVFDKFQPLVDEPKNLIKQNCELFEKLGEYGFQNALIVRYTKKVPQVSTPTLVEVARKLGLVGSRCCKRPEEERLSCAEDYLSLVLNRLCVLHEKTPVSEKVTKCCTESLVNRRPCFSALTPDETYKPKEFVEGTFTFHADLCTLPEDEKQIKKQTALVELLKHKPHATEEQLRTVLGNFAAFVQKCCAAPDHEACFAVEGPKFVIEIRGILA

[5] = Metabolic stability in rat liver S9 fraction; type: in vitro ADME; details: 30 min incubation in the presence of NADPH
[6] = target: T1, FAAH (Rattus norvegicus, UniProt P97612); assay: Inhibition of fatty acid amide hydrolase; type: biochemical
T1 sequence (P97612 1-579): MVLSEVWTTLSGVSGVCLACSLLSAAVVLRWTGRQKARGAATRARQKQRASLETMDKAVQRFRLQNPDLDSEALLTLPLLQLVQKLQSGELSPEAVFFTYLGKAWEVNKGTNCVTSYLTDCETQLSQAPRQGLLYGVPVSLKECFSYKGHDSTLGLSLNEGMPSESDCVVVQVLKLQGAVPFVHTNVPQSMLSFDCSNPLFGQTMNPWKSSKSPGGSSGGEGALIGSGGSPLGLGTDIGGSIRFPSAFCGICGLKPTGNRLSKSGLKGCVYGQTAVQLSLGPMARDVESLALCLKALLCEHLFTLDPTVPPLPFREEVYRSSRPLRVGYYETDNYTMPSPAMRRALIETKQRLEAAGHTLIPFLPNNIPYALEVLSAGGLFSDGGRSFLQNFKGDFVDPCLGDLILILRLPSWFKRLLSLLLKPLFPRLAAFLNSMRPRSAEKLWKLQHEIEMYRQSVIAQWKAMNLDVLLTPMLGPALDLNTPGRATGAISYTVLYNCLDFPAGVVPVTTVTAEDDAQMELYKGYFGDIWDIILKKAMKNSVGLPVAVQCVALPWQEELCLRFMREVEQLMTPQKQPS

[7] = target: T2, human recombinant MAGL (Homo sapiens, UniProt Q99685); assay: Inhibition of monoacylglycerol lipase; type: biochemical
T2 sequence (Q99685 1-303): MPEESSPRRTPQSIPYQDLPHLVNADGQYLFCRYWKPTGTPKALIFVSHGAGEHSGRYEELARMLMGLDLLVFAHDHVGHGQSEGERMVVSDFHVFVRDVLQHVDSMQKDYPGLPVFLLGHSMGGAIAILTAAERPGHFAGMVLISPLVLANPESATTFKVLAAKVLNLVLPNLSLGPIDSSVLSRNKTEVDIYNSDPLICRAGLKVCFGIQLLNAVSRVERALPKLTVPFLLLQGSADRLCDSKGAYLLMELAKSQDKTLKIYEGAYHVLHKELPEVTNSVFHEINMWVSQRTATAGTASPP

SMILES | stability in PBS buffer (percent of parent remaining) [1] [%] | stability porcine liver S9 fractions (percent of parent remaining) [2] [%] | stability porcine blood plasma (percent of parent remaining) [3] | stability porcine albumin solution (percent of parent remaining) [4] | IC50 [6] [nM] | IC50 [7] [nM] | other results
N#Cc1ccc(OC(=O)NCCCCCn2ccc3ccc(F)cc32)cc1 [Compound 29, 4-Cyanophenyl N-[5-(6-Fluoroindol-1-yl)pentyl]carbamate] | 12 ± 3 | – | – | – | – | – | cleavage in PBS buffer (pH 7.4) into the amine and 4-hydroxybenzonitrile ([1]; after 30 min at 37 °C, HPLC/MS): nearly totally cleaved
CNC(=O)Oc1ccc2c(c1)[C@]1(C)CCN(C)[C@@H]1N2C [physostigmine, reference compound] | >95 | 57 ± 4 | >95% | >95% | – | – | metabolic stability porcine plasma (percent of parent remaining) [3]: >95%; metabolic stability rat liver S9 fraction (percent of parent remaining) [5]: 76 ± 7%
O=C(NCCCCCn1ccc2ccc(F)cc21)Oc1cccnc1 [Compound 44] | 60 ± 2 | 53 ± 7 | <5% | 27 ± 3% | 2 | 170 | –
O=C(NCCCCCn1ccc2ccc(F)cc21)Oc1ccccc1C(=O)O [Compound 37, 2-({[5-(6-Fluoroindol-1-yl)pentyl]carbamoyl}oxy)benzoic Acid] | 73 ± 6 | 77 ± 3 | 28 ± 4% | 74 ± 2% | 38 | 38 | factor by which MAGL activity exceeds reference inhibitor ABX-1431 ([7]; ratio of MAGL IC50 values): 15
O=C(NCCCCCCCn1ccc2ccc(F)cc21)Oc1ccccc1 [Compound 21] | – | – | – | – | 84 | – | metabolic stability porcine plasma (percent of parent remaining) [3]: 34 ± 5%; metabolic stability rat liver S9 fraction (percent of parent remaining) [5]: 74 ± 11%
O=C(NCCCCCn1ccc2ccc(F)cc21)Oc1ccc(C(=O)O)cc1 [Compound 33, 4-({[5-(6-Fluoroindol-1-yl)pentyl]carbamoyl}oxy)benzoic Acid] | >95 | 59 ± 6 | 37 ± 2% | 90 ± 9% | 12 | 3300 | stability in the absence of BNNP (percent of parent remaining) [2]: 59 ± 6%; stability in the presence of BNNP (percent of parent remaining) [2]: 81 ± 8%
O=C(O)c1cccc(OC(=O)N2CCC(CCn3ccc4ccc(F)cc43)CC2)c1 [Compound 56] | >95 | 72 ± 7 | >95% | 94 ± 3% | 27 | – | –
O=C(O)c1ccc(OC(=O)N2CCC(CCn3ccc4ccc(F)cc43)CC2)cc1 [Compound 54, 4-({4-[2-(6-Fluoroindol-1-yl)ethyl]piperidine-1-carbonyl}oxy)benzoic Acid] | >95 | 66 ± 9 | 94 ± 3% | 93 ± 8% | 15 | – | –
N#Cc1ccccc1OC(=O)NCCCCCn1ccc2ccc(F)cc21 [Compound 31] | 3 ± 2 | – | – | – | – | – | –
Cc1ncccc1OC(=O)NCCCCCn1ccc2ccc(F)cc21 [Compound 45] | 75 ± 4 | 65 ± 9 | 23 ± 6% | 70 ± 8% | 10 | 140 | –
O=C(NCCCCCn1ccc2ccc(F)cc21)Oc1cccc2[nH]ccc12 [Compound 49, Indol-4-yl N-[5-(6-Fluoroindol-1-yl)pentyl]carbamate] | >95 | 78 ± 4 | 80 ± 3% | 81 ± 6% | 180 | – | decrease in FAAH inhibitory activity compared with compound 14 ([6]; ratio of FAAH IC50 values): about 6 fold
CCOC(=O)C1=C[C@@H](OC(CC)CC)[C@H](NC(C)=O)[C@@H](N)C1 [oseltamivir, reference compound] | – | – | – | – | – | – | stability in the absence of BNNP (percent of parent remaining) [2]: 11 ± 2%; stability in the presence of BNNP (percent of parent remaining) [2]: 97 ± 1%
O=C(O)c1ccccc1OC(=O)N1CCC(CCn2ccc3ccc(F)cc32)CC1 [Compound 58] | >95 | 72 ± 6 | >95% | 89 ± 6% | 3500 | – | –
O=C(NCCCCn1ccc2ccc(F)cc21)Oc1ccccc1 [Compound 11] | – | – | – | – | 470 | – | metabolic stability porcine plasma (percent of parent remaining) [3]: 74 ± 2%; metabolic stability rat liver S9 fraction (percent of parent remaining) [5]: 75 ± 6%
O=C(NCCCCCCCCn1ccc2ccc(F)cc21)Oc1ccccc1 [Compound 25, Phenyl N-[8-(6-Fluoroindol-1-yl)octyl]carbamate] | – | – | – | – | 130 | – | metabolic stability porcine plasma (percent of parent remaining) [3]: 65 ± 2%; metabolic stability rat liver S9 fraction (percent of parent remaining) [5]: 74 ± 5%
O=C(NCCCCCn1ccc2ccc(F)cc21)Oc1cccc(C(=O)O)c1 [Compound 35] | >95 | 74 ± 2 | 78 ± 1% | 93 ± 3% | 18 | > 10000 | inhibition at 10 µM ([7]; read-out: MAGL inhibition at 10 μM): 31%
O=C(NCCCCCCn1ccc2ccc(F)cc21)Oc1ccccc1 [Compound 17] | – | – | – | – | 85 | – | metabolic stability porcine plasma (percent of parent remaining) [3]: 55 ± 2%; metabolic stability rat liver S9 fraction (percent of parent remaining) [5]: 73 ± 2%
N#Cc1cccc(OC(=O)NCCCCCn2ccc3ccc(F)cc32)c1 [Compound 30] | 72 ± 3 | 49 ± 4 | < 5% | <5% | 8 | 380 | –
Cc1ccc(OC(=O)NCCCCCn2ccc3ccc(F)cc32)cn1 [Compound 48] | 82 ± 6 | 51 ± 9 | <5% | 62 ± 4% | 4 | 310 | –
O=C(NCCCCCn1ccc2ccc(F)cc21)Oc1ccc(F)cc1 [Compound 26, 4-Fluorophenyl N-[5-(6-Fluoroindol-1-yl)pentyl]carbamate] | >95 | 69 ± 4 | 59 ± 13^n = 6% | 91 ± 6^n = 5% | 49 | – | –
